For series [1] the following is noted: human, serum, 4383 h.
For series [2] the following is noted: human.
The nature of series [3]: Proposed mechanism(s) of liver damage. [column 'MEC' in source]. The conditions noted are these: human.
The conditions of series [4]: human. This is another data set of the same source.
For series [5] the following is noted: human, serum.
The conditions of series [6]: human. The source holds these as a separate data set.
The conditions of series [7]: human. This is another data set of the same source.
For series [8] the following is noted: human, serum. This is another data set of the same source.
For series [9] the following is noted: human. This is another data set of the same source.
Series [10] in a line: Highest frequency of acute liver toxicity observed during clinical trials, expressed as a percentage. [column '% AIGUE' in source]. The following applies: human.
For series [11] the following is noted: human. The source holds these as a separate data set.
Series [12] is described as follows: Times to onset, minimal and maximal, observed in the indexed observations. [column 'DELAI' in source]. The conditions noted are these: human.
The conditions of series [13]: human. This is another data set of the same source.
For series [14] the following is noted: human. The source holds these as a separate data set.
The conditions of series [15]: human. This is another data set of the same source.
For series [16] the following is noted: human. This is another data set of the same source.
A short description of series [17]: Highest frequency of moderate liver toxicity observed during clinical trials, expressed as a percentage. [column '% BIOL' in source]. The following applies: human.
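Throughout, for Hepatotoxicity (association with vascular disease): count of indexed literature references reporting vascular liver injury in humans, e.g. peliosis hepatitis, hepatic veno-occlusive disease or Budd-Chiari syndrome.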
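Throughout, for Hepatotoxicity (benign tumour): value is a count of indexed literature references citing a benign tumour confirmed by histopathology.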
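Throughout, for Hepatotoxicity (choleostasis): human cholestatic liver injury, shown by histopathology or by peak ALT or AST elevation over alkaline phosphatase ratio below 2, value counts indexed literature reports.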
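Throughout, for Hepatotoxicity (chronic liver disease): chronic liver injury confirmed by histopathology or persistently raised serum aminotransferase activity beyond 6 months, value given as the count of indexed literature references.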
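Throughout, for Hepatotoxicity (cirrhosis): value is a count of indexed literature references reporting cirrhosis confirmed by histopathology.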
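Throughout, for Hepatotoxicity (cytolytic): human cytolytic liver injury, shown by histopathology or by a ratio above 5 of peak ALT or AST elevation to alkaline phosphatase elevation, value counts indexed references.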
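Throughout, for Hepatotoxicity (granulomatous hepatitis): value is a count of indexed literature references reporting granulomatous liver disease confirmed by histopathology.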
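Throughout, for Hepatotoxicity (malignant tumour): malignant tumour confirmed by histopathology, value gives the count of indexed literature references reporting it.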
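Throughout, for Hepatotoxicity (severe hepatitis): human clinical data: severe hepatitis, meaning potentially life-threatening liver failure or clinically observed cases, the value counts how many indexed literature references report it.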
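Throughout, for Hepatotoxicity (steatosis): steatosis confirmed by histopathology, value is the count of indexed references.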

Consider `O=NN(CCCl)C(=O)NCCCl` [CARMUSTINE], for which the “Hepatotoxicity (chronic liver disease)” value in series [1] stood at 0. Further, the “Hepatotoxicity (cirrhosis)” value in series [2] stood at 0. Also, the “Hepatotoxicity (mechanism)” value in [3] is reported as “Dose-dependant”. Also, in series [4], the “Hepatotoxicity (choleostasis)” value was 1. Further, the “Hepatotoxicity (acute)” value in series [5] was 6; in [10], 23%. The “Hepatotoxicity (association with vascular disease)” value in series [6] was 10. For the same compound, the “Hepatotoxicity (animal toxicity known)” value in [7] is reported as “yes”. The “Hepatotoxicity (moderate)” value came out at 8 in series [8] and 26% in series [17]. Moreover, in series [9], the “Hepatotoxicity (severe hepatitis)” value worked out at 2. The “Hepatotoxicity (granulomatous hepatitis)” value in series [11] is 0. Besides, the “Hepatotoxicity (time to onset)” value in series [12] is reported as 1 week - 6 weeks. For the same compound, in series [13], the “Hepatotoxicity (cytolytic)” value came out at 3. Also, the “Hepatotoxicity (malignant tumour)” value in series [14] was 0. Moreover, in series [15], the “Hepatotoxicity (steatosis)” value is 0. Also, the “Hepatotoxicity (benign tumour)” value in series [16] came to 0.

With `OC(c1cc(C(F)(F)F)nc2c(C(F)(F)F)cccc12)C1CCCCN1` (stereo unspecified) [MEFLOQUINE], in series [1], the “Hepatotoxicity (chronic liver disease)” value is 0. Moreover, the “Hepatotoxicity (cirrhosis)” value in series [2] was determined as 0. The “Hepatotoxicity (choleostasis)” value in [4] worked out at 0. The “Hepatotoxicity (acute)” value is recorded as 2 in series [5] and 0% in series [10]. Further, the “Hepatotoxicity (association with vascular disease)” value in series [6] is reported as 0. In series [7], the “Hepatotoxicity (animal toxicity known)” value was “yes”. The entries for the “Hepatotoxicity (moderate)” value in [8] and in [17] were 5 and 22.5%, respectively. Besides, the “Hepatotoxicity (severe hepatitis)” value in series [9] turned out to be 0. In addition, the “Hepatotoxicity (granulomatous hepatitis)” value in [11] was determined as 0. Further, the “Hepatotoxicity (time to onset)” value in series [12] is 2 weeks - 3 weeks. For the same compound, the “Hepatotoxicity (cytolytic)” value in series [13] stood at 1. Also, the “Hepatotoxicity (malignant tumour)” value in [14] came to 0. Besides, the “Hepatotoxicity (steatosis)” value in series [15] turned out to be 1. Moreover, the “Hepatotoxicity (benign tumour)” value in series [16] turned out to be 0.

In the case of `CCN(CC)CCNc1ccc(CO)c2sc3ccccc3c(=O)c12` [HYCANTHONE], the “Hepatotoxicity (chronic liver disease)” value in series [1] turned out to be 1. The “Hepatotoxicity (cirrhosis)” value in [2] worked out at 0. The “Hepatotoxicity (choleostasis)” value in series [4] was found to be 1. The “Hepatotoxicity (acute)” value in series [5] is 7; in series [10], 0%. For the same compound, the “Hepatotoxicity (association with vascular disease)” value in series [6] is on record as 0. For the same compound, the “Hepatotoxicity (animal toxicity known)” value in series [7] is reported as “yes”. The “Hepatotoxicity (moderate)” value is listed as 1 in series [8] and 0% in [17]. Further, in series [9], the “Hepatotoxicity (severe hepatitis)” value was 16. Besides, the “Hepatotoxicity (granulomatous hepatitis)” value in [11] turned out to be 0. Moreover, in series [12], the “Hepatotoxicity (time to onset)” value was determined as 1 day - 18 days. The “Hepatotoxicity (cytolytic)” value in series [13] came out at 3. Also, the “Hepatotoxicity (malignant tumour)” value in series [14] was 0. Moreover, the “Hepatotoxicity (steatosis)” value in series [15] came to 1. In [16], the “Hepatotoxicity (benign tumour)” value is recorded as 0.

With `COc1ccc2c(C(=S)N(C)CC(=O)O)cccc2c1C(F)(F)F` [TOLRESTAT], the “Hepatotoxicity (chronic liver disease)” value in series [1] turned out to be 0. For the same compound, the “Hepatotoxicity (cirrhosis)” value in series [2] was found to be 0. For the same compound, the “Hepatotoxicity (choleostasis)” value in series [4] was 0. The “Hepatotoxicity (acute)” value in [5] was 2; in [10] it was 0.2%. In series [6], the “Hepatotoxicity (association with vascular disease)” value is recorded as 0. Besides, the “Hepatotoxicity (animal toxicity known)” value in [7] was “yes”. Besides, the “Hepatotoxicity (moderate)” value in series [8] came to 7; in series [17], 15.4%. Moreover, the “Hepatotoxicity (severe hepatitis)” value in series [9] was 1. Further, in [11], the “Hepatotoxicity (granulomatous hepatitis)” value was 0. Moreover, the “Hepatotoxicity (time to onset)” value in series [12] is listed as 7 weeks - 6 months. In addition, in [13], the “Hepatotoxicity (cytolytic)” value came to 2. Also, in [14], the “Hepatotoxicity (malignant tumour)” value is reported as 0. In [15], the “Hepatotoxicity (steatosis)” value worked out at 0. In addition, in series [16], the “Hepatotoxicity (benign tumour)” value was determined as 0.

Turning to `CCN1CC(CCN2CCOCC2)C(c2ccccc2)(c2ccccc2)C1=O` (stereo unspecified) [DOXAPRAM], the “Hepatotoxicity (chronic liver disease)” value in [1] is on record as 0. Further, the “Hepatotoxicity (cirrhosis)” value in series [2] amounted to 0. For the same compound, the “Hepatotoxicity (choleostasis)” value in series [4] stood at 0. Also, the “Hepatotoxicity (acute)” value in [5] is listed as 1; in [10] it was 0%. Also, in series [6], the “Hepatotoxicity (association with vascular disease)” value is given as 0. In addition, the “Hepatotoxicity (animal toxicity known)” value in series [7] was “yes”. Further, the results for the “Hepatotoxicity (moderate)” value in [8] and in series [17] were 1 and 0%, respectively. Besides, the “Hepatotoxicity (severe hepatitis)” value in [9] stood at 0. Also, the “Hepatotoxicity (granulomatous hepatitis)” value in series [11] is reported as 0. Besides, the “Hepatotoxicity (time to onset)” value in series [12] came to 1 day - 5 days. Further, the “Hepatotoxicity (cytolytic)” value in [13] is listed as 1. The “Hepatotoxicity (malignant tumour)” value in series [14] stood at 0. In series [15], the “Hepatotoxicity (steatosis)” value is on record as 1. For the same compound, in [16], the “Hepatotoxicity (benign tumour)” value was 0.

Take `O=NN(CCCl)C(=O)NC1CCCCC1` [LOMUSTINE]: the “Hepatotoxicity (chronic liver disease)” value in series [1] is 0. Also, the “Hepatotoxicity (cirrhosis)” value in series [2] worked out at 0. Besides, the “Hepatotoxicity (choleostasis)” value in series [4] is on record as 2. The “Hepatotoxicity (acute)” value in [5] was 2; in series [10], 0%. In series [6], the “Hepatotoxicity (association with vascular disease)” value was found to be 0. Moreover, the “Hepatotoxicity (animal toxicity known)” value in series [7] was “yes”. Moreover, the “Hepatotoxicity (moderate)” value is given as 4 in series [8] and 39% in series [17]. Also, the “Hepatotoxicity (severe hepatitis)” value in [9] is reported as 1. Also, the “Hepatotoxicity (granulomatous hepatitis)” value in series [11] is 0. In [12], the “Hepatotoxicity (time to onset)” value is 2 days - 4 months. The “Hepatotoxicity (cytolytic)” value in series [13] is listed as 1. The “Hepatotoxicity (malignant tumour)” value in series [14] was 0. Besides, the “Hepatotoxicity (steatosis)” value in series [15] came to 0. For the same compound, the “Hepatotoxicity (benign tumour)” value in series [16] was found to be 0.

As for `COC(=O)[C@H]1[C@H]2C[C@@H]3c4[nH]c5cc(OC)ccc5c4CCN3C[C@H]2C[C@@H](OC(=O)c2cc(OC)c(OC)c(OC)c2)[C@@H]1OC` [RESERPINE], in series [1], the “Hepatotoxicity (chronic liver disease)” value worked out at 0. Further, the “Hepatotoxicity (cirrhosis)” value in series [2] was found to be 0. Further, the “Hepatotoxicity (choleostasis)” value in [4] is 1. Also, the “Hepatotoxicity (acute)” value was 3 in series [5] and 0% in series [10]. In addition, in series [6], the “Hepatotoxicity (association with vascular disease)” value came to 0. Further, the “Hepatotoxicity (animal toxicity known)” value in [7] is reported as “yes”. Moreover, the “Hepatotoxicity (moderate)” value in series [8] was 0; in [17] it was 0%. In addition, the “Hepatotoxicity (severe hepatitis)” value in [9] is 0. Besides, in [11], the “Hepatotoxicity (granulomatous hepatitis)” value is 0. The “Hepatotoxicity (time to onset)” value in series [12] turned out to be 1 year. For the same compound, in series [13], the “Hepatotoxicity (cytolytic)” value is 0. Besides, the “Hepatotoxicity (malignant tumour)” value in [14] is given as 0. The “Hepatotoxicity (steatosis)” value in [15] turned out to be 0. Also, in series [16], the “Hepatotoxicity (benign tumour)” value amounted to 0.

On to ASPARAGINASE, for which, in series [1], the “Hepatotoxicity (chronic liver disease)” value is listed as 0. Besides, the “Hepatotoxicity (cirrhosis)” value in series [2] was 0. The “Hepatotoxicity (mechanism)” value in [3] is recorded as “Dose-dependant”. Further, the “Hepatotoxicity (choleostasis)” value in series [4] was 0. Also, the “Hepatotoxicity (acute)” value in [5] was 2; in series [10], 2.9%. For the same compound, the “Hepatotoxicity (association with vascular disease)” value in series [6] amounted to 0. The “Hepatotoxicity (animal toxicity known)” value in series [7] was “yes”. The “Hepatotoxicity (moderate)” value in [8] was 27; in series [17], 63%. Further, in [9], the “Hepatotoxicity (severe hepatitis)” value worked out at 2. Further, the “Hepatotoxicity (granulomatous hepatitis)” value in series [11] worked out at 0. Besides, in [13], the “Hepatotoxicity (cytolytic)” value turned out to be 1. Also, the “Hepatotoxicity (malignant tumour)” value in [14] amounted to 0. Besides, the “Hepatotoxicity (steatosis)” value in [15] turned out to be 9. Besides, the “Hepatotoxicity (benign tumour)” value in series [16] is on record as 0.

Turning to `Nc1ncn([C@@H]2O[C@H](CO)[C@@H](O)[C@H]2O)c(=O)n1` [AZACITIDINE], the “Hepatotoxicity (chronic liver disease)” value in series [1] is given as 0. In addition, in series [2], the “Hepatotoxicity (cirrhosis)” value is 0. Further, in series [4] (Liver), the “Hepatotoxicity (choleostasis)” value is reported as 0. Further, the “Hepatotoxicity (acute)” value in series [5] is given as 1; in series [10] (Liver) it was 0%. The “Hepatotoxicity (association with vascular disease)” value in series [6] was determined as 0. The “Hepatotoxicity (animal toxicity known)” value in [7] is reported as “yes”. For the same compound, the “Hepatotoxicity (moderate)” value in series [8] is given as 5; in [17] (Liver) it was 62.5%. Besides, the “Hepatotoxicity (severe hepatitis)” value in series [9] (Liver) was 2. In addition, the “Hepatotoxicity (granulomatous hepatitis)” value in series [11] (Liver) turned out to be 0. Also, in [12], the “Hepatotoxicity (time to onset)” value was found to be 1 week. For the same compound, the “Hepatotoxicity (cytolytic)” value in series [13] (Liver) is on record as 1. The “Hepatotoxicity (malignant tumour)” value in series [14] came to 0. The “Hepatotoxicity (steatosis)” value in series [15] is recorded as 0. The “Hepatotoxicity (benign tumour)” value in [16] came to 0.

Consider `C[C@H](CCC(=O)O)[C@H]1CC[C@H]2[C@@H]3[C@@H](O)C[C@@H]4C[C@H](O)CC[C@]4(C)[C@H]3CC[C@]12C` [URSODIOL], for which the “Hepatotoxicity (chronic liver disease)” value in [1] stood at 0. Besides, the “Hepatotoxicity (cirrhosis)” value in [2] came to 0. Besides, in [4], the “Hepatotoxicity (choleostasis)” value stood at 0. The “Hepatotoxicity (acute)” value was determined as 1 in [5] and 0% in [10]. The “Hepatotoxicity (association with vascular disease)” value in series [6] is 0. In series [7], the “Hepatotoxicity (animal toxicity known)” value is on record as “yes”. The results for the “Hepatotoxicity (moderate)” value in series [8] and in series [17] were 8 and 4.2%, respectively. Besides, the “Hepatotoxicity (severe hepatitis)” value in series [9] is reported as 0. In addition, in series [11], the “Hepatotoxicity (granulomatous hepatitis)” value is reported as 0. The “Hepatotoxicity (time to onset)” value in [12] amounted to 3 weeks - 14 weeks. Further, the “Hepatotoxicity (cytolytic)” value in series [13] turned out to be 0. Besides, in series [14], the “Hepatotoxicity (malignant tumour)” value came to 0. Besides, in [15], the “Hepatotoxicity (steatosis)” value worked out at 0. Besides, the “Hepatotoxicity (benign tumour)” value in series [16] turned out to be 0.

Values taken from ChEMBL document CHEMBL3137667, “[Drug-induced liver injury; fourteenth updated edition of the bibliographic database of liver injuries and related drugs]” (Gastroenterol Clin Biol, 2004).
